This is an account of results in patent publication US7223796B2, “Acyl-4-carboxyphenylurea derivatives, processes for preparing them and their use” (Sanofi-aventis Deutschland GmbH, priority 2002, dated 2007).

Data set [1] addresses T1, Human glycogen phosphorylase a (Homo sapiens, UniProt P06737).
T1 sequence (P06737 2-847 limits assumed): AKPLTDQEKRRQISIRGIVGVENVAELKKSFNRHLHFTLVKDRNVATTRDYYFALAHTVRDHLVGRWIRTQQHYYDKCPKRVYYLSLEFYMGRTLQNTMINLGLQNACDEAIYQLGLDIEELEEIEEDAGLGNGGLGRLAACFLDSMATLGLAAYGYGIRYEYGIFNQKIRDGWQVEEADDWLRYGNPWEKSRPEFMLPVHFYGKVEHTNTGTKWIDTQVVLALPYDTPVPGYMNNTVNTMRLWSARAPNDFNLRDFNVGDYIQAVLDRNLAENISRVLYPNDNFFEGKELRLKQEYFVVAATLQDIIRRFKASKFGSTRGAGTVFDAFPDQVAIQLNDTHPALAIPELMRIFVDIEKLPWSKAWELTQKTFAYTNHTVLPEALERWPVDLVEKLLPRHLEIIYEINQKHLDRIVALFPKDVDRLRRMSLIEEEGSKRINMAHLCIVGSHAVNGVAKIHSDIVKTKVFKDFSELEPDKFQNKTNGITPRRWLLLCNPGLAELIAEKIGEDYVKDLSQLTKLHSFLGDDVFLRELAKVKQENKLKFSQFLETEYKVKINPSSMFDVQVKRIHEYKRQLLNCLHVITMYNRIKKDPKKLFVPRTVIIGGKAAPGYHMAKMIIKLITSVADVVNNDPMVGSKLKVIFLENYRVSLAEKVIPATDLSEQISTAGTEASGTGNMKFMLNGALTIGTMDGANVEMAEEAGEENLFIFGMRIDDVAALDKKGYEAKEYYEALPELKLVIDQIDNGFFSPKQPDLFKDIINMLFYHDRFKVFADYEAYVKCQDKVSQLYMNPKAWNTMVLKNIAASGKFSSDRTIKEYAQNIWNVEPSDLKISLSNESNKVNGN
Kind of data set: Glycogen phosphorylase a activity test. Format: biochemical. As to conditions: read-out: % inhibition at 10 μM; 10 μM test substance; GPa measured in reverse direction (glycogen synthesis from glucose 1-phosphate, phosphate release).
Experimental: Glycogen Phosphorylase a Activity Test
All the reactions were carried out as duplicate determinations in 96-well microtiter plates (Half Area Plates, Costar No. 3696), with the change in absorption due to the formation of the reaction product being measured, at the wavelength specified below, in a Multiscan Ascent Elisa Reader (Lab Systems, Finland). In order to measure the enzymic activity of GPa in the reverse direction, the conversion of glucose 1-phosphate into glycogen and inorganic phosphate was measured in accordance with the general method of Engers et al. (Engers H D, Shechosky S, Madsen N B, Can J Biochem 1970 July;48(7): 746–754) but with the following modifications: Human glycogen phosphorylase a (for example containing 0.76 mg of protein/ml (Aventis Pharma Deutschland GmbH), dissolved in buffer solution E (25 mM β-glycerophosphate, pH 7.0, 1 mM EDTA and 1 mM dithiothreitol), was diluted with buffer T (50 mM Hepes, pH 7.0, 100 mM KCl, 2.5 mM EDTA, 2.5 mM MgCl2.6H2O), and addition of 5 mg of glycogen/ml, to a concentration of 10 μg of protein/ml. […] The basal value of the activity of the glycogen phosphorylase a in the absence of test substance was determined by adding 10 μl of buffer solution T (0.1% DMSO). […] After 60 minutes of incubation at 45° C., the absorption was measured at 820 nm. […]

One may read the melting point as the temperature of the solid-liquid transition. Broadly, the inhibition is the change of the read-out against control, counted positive when it falls. On to `O=C(NC(=O)c1cc(F)c(F)cc1Cl)Nc1ccc(C(=O)O)cc1OC(F)(F)F` [Example 48, 4-[3-(2-Chloro-4,5-difluorobenzoyl)ureido]-3-trifluoromethoxybenzoic acid], for which the melting point worked out at 236 °C. For the same compound, the inhibition at 10 µM in data set [1] turned out to be 99%.
